Columns and labels:
Format in all cases: cell-based, human
cdc2 = assay: Protein expression, Western blot in MCF-7 cells; conditions: 24 h (FIG. 4B)
Description: (§1) In FIG. 4A, MCF-7 cells were exposed to 1 μM concentration of the indicated compounds for 6 hours. Western blots were probed with antibodies specific for the proteins indicated. Numbers below each lane show densitometry readings for each lane as compared to control. In FIG. 4B, MCF-7 cells were exposed to the indicated concentration of compound 28 and incubated for 24 hours. Western blots were probed with antibodies specific for the proteins indicated.
(§2) To determine the disclosed compounds effect on protein expression in human breast cancer cells, cultured MCF-7 cells were exposed to various concentrations of the test compounds for 6 h (FIG. 4A) or 24 h (FIG. 4B). Cell lysates were fractionated with identical amounts of protein by SDS-PAGE and transferred to Bio-Rad trans-Blot nitrocellulose membranes (Bio-Rad Laboratories, Hercules, Calif.). The nitrocellulose membrane was incubated in blocking buffer (Tris-buffered saline containing 0.1% Tween 20 and 5% nonfat milk) for 1 h at room temperature, then with the appropriate primary antibody overnight at 4° C. or 2 h at room temperature with gentle shaking. Finally, the membrane was washed three times with the washing buffer (Tris-buffered saline containing 0.1% Tween 20) for 15 min, incubated with goat anti mouse/rabbit IgG-horseradish peroxidase-conjugated antibody (Bio-Rad) for 1 h at room temperature, and washed again (in triplicate). The protein of interest was detected by enhanced chemiluminescence reagents from PerkinElmer LAS, Inc (Boston, Mass.).

E2F1 = assay: Protein expression, Western blot in MCF-7 cells; conditions: 24 h (FIG. 4B)
Description: as §1, §2

cleaved PARP = assay: Protein expression, Western blot in MCF-7 cells; conditions: 24 h (FIG. 4B)
Description: as §1, §2

cdc25c = assay: Protein expression, Western blot in MCF-7 cells; conditions: 24 h (FIG. 4B)
Description: as §1, §2

HCT-116 p53 −/− = assay: Cell cycle progression (propidium iodide, flow cytometry); conditions: 48 hr; for G1 / G2/M / S: HCT-116 p53 −/−
Description: (§3) To determination of the effects of the disclosed compounds on the cell cycle, 2-3×10^5 cells were exposed to the test compounds (0-5 μM) and incubated for 48 hr prior to analysis (Table 6). Cells were trypsinized, washed with PBS and fixed in 1.5 mL 95% ethanol at 4° C. overnight, followed by incubation with RNAse and staining with propidium iodide (Sigma). The DNA content was determined by flow cytometry.

HCT116 = assay: as above; conditions: 48 hr; for G1 / G2/M / S: HCT116
Description: as §3

With O=C(O)C(F)(F)F.O=C1C(NCc2ccc(F)cc2)=CC2=NCCc3c[nH]c1c32 [Compound 28] the “expression level of cdc2” value (cdc2) was “decreased”, the “expression level of E2F1” value (E2F1) was “decreased” and the “expression of cleaved PARP” value (cleaved PARP) was “increased expression”. For the same molecule, the “expression level of cdc25c” value (cdc25c) was “decreased”, the G1 (HCT-116 p53 −/−; 0.5 μM) was 28.18 and the G2/M (HCT-116 p53 −/−; 0.5 μM) was 49.02. For the same molecule, the S (HCT-116 p53 −/−; 0.5 μM) was 22.80, the G1 (HCT-116 p53 −/−; 1 μM) was 25.59 and the G2/M (HCT-116 p53 −/−; 1 μM) was 45.20. The S (HCT-116 p53 −/−; 1 μM) was 29.21, the cell cycle arrest (HCT-116 p53 −/−; colon cancer HCT116 p53−/−, dose-dependent) was “cell cycle arrest in the S and G2/M phase” and the G1 (HCT116; 0.5 μM) was 31.82. It also gave a G2/M (HCT116; 0.5 μM) of 45.04, an S (HCT116; 0.5 μM) of 23.14 and a G1 (HCT116; 1 μM) of 28.40. The G2/M (HCT116; 1 μM) was 38.17, the S (HCT116; 1 μM) was 33.43 and the cell cycle arrest (HCT116; colon cancer HCT116, dose-dependent) was “cell cycle arrest in the S and G2/M phase”.
